Measured values: patent publication US7563590B2, “Methods of quantifying methotrexate metabolites” (Cypress Bioscience Inc., priority 2002, dated 2009)

How the values were obtained:
gamma glutamyl hydrolase = target: T1, gamma glutamyl hydrolase (Homo sapiens, UniProt Q92820); assay: Enzymatic conversion of MTXPGs to MTX in RBC extract using plasma as source of gamma glutamyl hydrolase; type: biochemical; details: for conversion to MTX: in the dark, 1000 nmol/L RBC
T1 construct: contacting the extract with plasma as a source of gamma glutamyl hydrolase; tissue Sigma P9523; host or cells: reconstituted lyophilized plasma (purchased), mixed with RBC hemolysate from healthy donors
T1 sequence (Q92820 25-318): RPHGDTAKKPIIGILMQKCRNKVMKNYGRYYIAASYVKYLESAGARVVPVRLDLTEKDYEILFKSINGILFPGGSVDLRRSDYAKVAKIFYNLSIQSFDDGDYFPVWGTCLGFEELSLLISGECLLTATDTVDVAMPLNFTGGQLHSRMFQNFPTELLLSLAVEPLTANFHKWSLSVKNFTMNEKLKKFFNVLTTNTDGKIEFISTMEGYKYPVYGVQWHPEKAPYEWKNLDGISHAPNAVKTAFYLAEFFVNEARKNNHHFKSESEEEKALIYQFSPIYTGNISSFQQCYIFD
Experimental: MTXPGs were enzymatically converted to MTX by incubation with RBC extract and plasma as follows. RBCs were isolated from healthy donors (Blood bank; San Diego, Calif.) Hemolysates were prepared having 0.88×10^9 RBC per 100 μl. For spiked samples, MTXPG (Schirks Laboratories; Jona, Switzerland) was added to RBC extracts at a final concentration of 1 μM (from stock solutions containing 100 μM MTXPG in 0.1 N potassium hydroxide). Reconstituted plasma was prepared from lyophilized plasma (Sigma, St. Louis, USA; Cat. No. P9523) and 100 μl was added to 50 μl of RBC extract, mixed for 30 seconds, and 100 μl of buffer containing 100 mM potassium phosphate pH 4.5 and 150 mM mercaptoethanol was added. […] Samples were incubated for 12-14 hours, unless otherwise indicated, in the dark at 37° C. After incubation 30 μl of 70% perchloric acid was added to the mixture, vortexed for 15 seconds and centrifuged for 10 minutes. A total volume of 80 μl was injected onto the HPLC system for analysis using the MTX detection system described in Example I.
The percent conversion of MTXPG to MTX was determined by comparing the peak area of MTX formed during the enzymatic conversion at different times with the peak area of MTX spiked in the red blood cells at the same concentration.

[1] = Intracellular MTX and MTXPG levels in RBCs of polyarthritis patients receiving low-dose MTX; type: in vivo, human; details: one patient on 2.5 mg per week MTX, RBC
Experimental: Blood samples (5 ml) from polyarthritis patients receiving low-dose MTX were collected after written informed consent. The patients had received a median of 15 mg MTX (range 2.5 mg to 40 mg per week) for at least three months. Blood samples were centrifuged for 10 minutes to separate plasma and buffy coat from RBCs. After washing the RBC pellet with 2 volumes of saline, RBC count was determined with a Beckman Coulter Onyx Counter; RBCs were subsequently stored at −70° C. until analysis. Results were normalized to 10^9 red blood cells. Patient results were expressed as average ±SEM (range).
MTXPG concentrations were determined using the methods described in Example II except that RBC extracts were not spiked with MTXPG. MTXPG concentrations were calculated by subtracting […]. To quantify MTX concentrations without enzymatic treatment, a second 100 μl aliquot of patient RBC extract was obtained but not treated with plasma or buffer. Rather, 200 μl water was added to the RBC extract prior to immediate deproteinization with 30 μl 70% perchloric acid as described above.
An exemplary determination of MTXPG concentration in the red blood cells of a patient on 2.5 mg per week MTX therapy follows. […]

Compound	slope of plot of observed MTX concentration versus spiked concentration (gamma glutamyl hydrolase; RBC sample spiked prior to deglutamation (FIG. 5))	conversion to MTX (gamma glutamyl hydrolase; after 8 hour incubation at 37° C.)	conversion to MTX (gamma glutamyl hydrolase; by 4 hours, 37° C.)	MTX concentration prior to enzymatic conversion [1] [pmol MTXPG/10^9 cells]
CN(Cc1cnc2nc(N)nc(N)c2n1)c1ccc(C(=O)N[C@@H](CCC(=O)N[C@@H](CCC(=O)O)C(=O)O)C(=O)O)cc1 [MTXPG2]	0.98	completely converted	largely complete	–
CN(Cc1cnc2nc(N)nc(N)c2n1)c1ccc(C(=O)N[C@@H](CCC(=O)O)C(=O)O)cc1 [MTX, methotrexate]	–	–	–	16.5
